Measured values taken from EP0970067B1, “(METHYLSULFONYL)PHENYL-2-(5H)-FURANONES WITH OXYGEN LINK AS COX-2 INHIBITORS” (Merck Frosst Canada & Co., priority 1997, dated 1998).

Experiments:
Rat Paw Edema = experiment: Rat paw edema assay (carrageenan-induced); assay type: in vivo, Male Sprague-Dawley rats; conditions: po, 1 hr before subplantar carrageenan, paw volume measured three hr later
Procedure: Male Sprague-Dawley rats (150-200 g) are fasted overnight and are given, po, either vehicle (1% methocel or 5% Tween 80) or a test compound. One hr later, a line is drawn using a permanent marker at the level above the ankle in one hind paw to define the area of the paw to be monitored. The paw volume (V0) is measured using a plethysmometer (Ugo-Basile, Italy) based on the principle of water displacement. The animals are then injected subplantarly with […] of 1% carrageenan solution in saline (FMC Corp, Maine) into the paw using an insulin syringe with a 25-gauge needle (i.e. […] carrageenan per paw). Three hr later, the paw volume (V3) is measured and the increases in paw volume (V3 - VO) are calculated. The animals are sacrificed by CO2 asphyxiation and the absence or presence of stomach lesions scored. Data is compared with the vehicle-control values and percent inhibition calculated. All treatment groups are coded to eliminate observer bias.

human COX-1 = target: T1, human COX-1 (Homo sapiens, UniProt P23219); experiment: Whole cell COX-1 assay using CHO transfected cell line (PGE2 radioimmunoassay); assay type: cell-based; conditions: CHO [hCOX-1] cells; PGE2 synthesis in response to arachidonic acid
T1 construct: expressed in transfected cells; host or cells: CHO [hCOX-1], stably transfected with pCDNAIII
T1 sequence (P23219 24-599): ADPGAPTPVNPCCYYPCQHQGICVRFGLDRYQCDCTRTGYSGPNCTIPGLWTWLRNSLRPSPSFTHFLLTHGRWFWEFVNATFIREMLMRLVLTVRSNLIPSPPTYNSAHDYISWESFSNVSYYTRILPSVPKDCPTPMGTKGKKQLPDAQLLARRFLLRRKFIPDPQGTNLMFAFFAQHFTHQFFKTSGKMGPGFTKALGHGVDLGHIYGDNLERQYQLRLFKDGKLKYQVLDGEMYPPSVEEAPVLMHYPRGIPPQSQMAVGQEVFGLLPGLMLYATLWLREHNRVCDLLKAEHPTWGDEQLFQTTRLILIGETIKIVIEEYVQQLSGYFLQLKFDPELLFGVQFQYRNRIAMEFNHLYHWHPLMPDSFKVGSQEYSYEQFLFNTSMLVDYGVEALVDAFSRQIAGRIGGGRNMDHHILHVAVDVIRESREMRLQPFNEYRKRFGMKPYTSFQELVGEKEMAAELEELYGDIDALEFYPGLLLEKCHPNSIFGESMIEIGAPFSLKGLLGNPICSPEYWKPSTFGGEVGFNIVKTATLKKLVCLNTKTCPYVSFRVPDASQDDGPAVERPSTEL
Procedure: Compounds are tested as inhibitors of cyclooxygenase activity in whole cell cyclooxygenase assays. These assays measure prostaglandin E2 synthesis in response to arachidonic acid, using a radioimmunoassay. Cells used for these assays are chinese hamster ovary (CHO) cell lines which have been stably transfected with an eukaryotic expression vector […] containing either the human Cox-1 or Cox-2 CDNA's. U937 cell microsomes are also used to measure Cox-1 activity.
Chinese hamster ovary (CHO) cell lines which have been stably transfected with an eukaryotic expression vector pCDNAIII containing either the human COX-1 or COX-2 cDNA's are used for the assay. These cell lines are referred to as CHO [hCOX-1] and CHO [hCOX-2], respectively. […]
Compounds of the present invention are inhibitors of cyclooxygenase-2 and are thereby useful in the treatment of cyclooxygenase-2 mediated diseases as enumerated above. […] In the assay, inhibition is determined by measuring the amount of prostaglandin E2 (PGE2) synthesized in the presence of arachidonic acid, cyclooxygenase-1 or cyclooxygenase-2 and a putative inhibitor.

Structure (SMILES) | ED50 (Rat Paw Edema) | IC50 (human COX-1)
C[C@@H](CF)COC1=C(c2ccc(S(C)(=O)=O)cc2)C(C)(C)OC1=O [Example 10, 3-(((2R)-3-Fluoro-2-methylpropyl)oxy)-5,5-dimethyl-4-(4-methylsulfonylphenyl)-5H-furan-2-one] | 3.2 mg/kg | 100 µM
C[C@H](CF)COC1=C(c2ccc(S(C)(=O)=O)cc2)C(C)(C)OC1=O [Example 11, 3-(((2S)-3-fluoro-2-methylpropyl)oxy)-5,5-dimethyl-4-(4-methylsulfonylphenyl)-5H-furan-2-one] | 2.3 mg/kg | > 50 µM
